pIC50: −log10 of the molar value.
What was measured:
human PDE9A2 = biological target: T1, human PDE9A2 (Homo sapiens, UniProt O76083); test: PDE9A2 enzymatic activity assay (scintillation proximity assay); type: biochemical; details: SPA, lysate of SF9 cells expressing human PDE9A2, 20 nanomolar cGMP
T1 construct: made in house; host or cells: Sf9 insect cells (crude lysate, not purified)
Method: The total protein amount included in the assay varied upon infection and production efficacy of the SF9 cells and lay in the range of 0.1-100 ng.
The assays were run in 384-well format. The test reagents as well as the enzyme and the substrate were diluted in assay buffer. The assay buffer contained 50 mM Tris, 8.3 mM MgCl2, 1.7 mM EGTA, 0.1% BSA, 0.05% Tween 20; the pH of assay buffer was adjusted to 7.5.
(§1) IC50 can be calculated with GraphPadPrism or other suitable software setting the positive control as 100 and the negative control as 0. For calculation of IC50, dilutions of the test compounds […] are selected and tested following the aforementioned protocol.

PDE1C = PDE1C (Homo sapiens, UniProt Q14123); test: PDE1C assay, run analogously to the PDE9A2 assay; type: biochemical; details: ratio PDE1C vs PDE9A2
From the text: The reaction can be stopped by applying the same inhibitor as the one that is outlined above (1-(2-Chlorophenyl)-6-[(2R)-3,3,3-trifluoro-2-methyl-propyl]-1,5-dihydro-4H-pyrazolo[3,4-d]pyrimidine-4-one).
as §1
Selectivity is the ratio (IC50 for PDE1C inhibition [nanomolar (nM)])/(IC50 for PDE9A2 inhibition [nanomolar (nM)]).

human PDE9A = human PDE9A (Homo sapiens, UniProt O76083); details: isolated enzyme, concentrations of up to 100 micromolar (μM); cited from earlier work
Sequence of human PDE9A (O76083 whole entry): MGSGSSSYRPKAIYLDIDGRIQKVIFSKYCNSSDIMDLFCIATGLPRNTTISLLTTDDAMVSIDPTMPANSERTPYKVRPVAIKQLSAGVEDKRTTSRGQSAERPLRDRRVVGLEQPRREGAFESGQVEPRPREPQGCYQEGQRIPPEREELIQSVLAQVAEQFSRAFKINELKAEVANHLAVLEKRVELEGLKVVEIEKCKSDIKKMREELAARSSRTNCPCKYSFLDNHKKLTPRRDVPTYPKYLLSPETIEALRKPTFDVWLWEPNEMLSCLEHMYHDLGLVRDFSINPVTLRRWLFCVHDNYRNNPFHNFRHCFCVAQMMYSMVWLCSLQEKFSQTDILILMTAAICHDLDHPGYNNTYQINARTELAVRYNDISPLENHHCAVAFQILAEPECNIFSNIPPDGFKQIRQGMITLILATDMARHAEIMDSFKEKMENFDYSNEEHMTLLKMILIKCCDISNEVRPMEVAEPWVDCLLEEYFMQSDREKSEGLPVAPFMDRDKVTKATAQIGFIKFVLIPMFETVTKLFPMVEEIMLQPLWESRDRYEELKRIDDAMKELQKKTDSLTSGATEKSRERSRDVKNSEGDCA

Murine PDE9A = biological target: T2, Murine PDE9A (Mus musculus, UniProt O70628); details: concentrations below 200 micromolar; cited from earlier work
T2 sequence (O70628 1-534): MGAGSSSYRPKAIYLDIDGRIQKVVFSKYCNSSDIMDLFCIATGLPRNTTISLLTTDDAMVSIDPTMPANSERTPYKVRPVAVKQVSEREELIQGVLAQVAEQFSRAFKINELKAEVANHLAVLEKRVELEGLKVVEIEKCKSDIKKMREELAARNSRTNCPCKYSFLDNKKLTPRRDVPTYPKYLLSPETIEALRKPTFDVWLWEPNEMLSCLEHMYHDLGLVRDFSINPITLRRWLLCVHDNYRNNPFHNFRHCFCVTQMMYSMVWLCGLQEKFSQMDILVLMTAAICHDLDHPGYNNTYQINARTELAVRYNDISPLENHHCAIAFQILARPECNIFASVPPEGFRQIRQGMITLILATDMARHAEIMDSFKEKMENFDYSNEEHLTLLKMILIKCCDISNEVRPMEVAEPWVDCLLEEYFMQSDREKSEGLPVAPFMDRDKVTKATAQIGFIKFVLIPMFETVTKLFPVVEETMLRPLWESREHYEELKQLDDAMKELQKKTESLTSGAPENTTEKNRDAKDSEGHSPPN

T1 sequence (O76083 1-533 isoform O76083-2): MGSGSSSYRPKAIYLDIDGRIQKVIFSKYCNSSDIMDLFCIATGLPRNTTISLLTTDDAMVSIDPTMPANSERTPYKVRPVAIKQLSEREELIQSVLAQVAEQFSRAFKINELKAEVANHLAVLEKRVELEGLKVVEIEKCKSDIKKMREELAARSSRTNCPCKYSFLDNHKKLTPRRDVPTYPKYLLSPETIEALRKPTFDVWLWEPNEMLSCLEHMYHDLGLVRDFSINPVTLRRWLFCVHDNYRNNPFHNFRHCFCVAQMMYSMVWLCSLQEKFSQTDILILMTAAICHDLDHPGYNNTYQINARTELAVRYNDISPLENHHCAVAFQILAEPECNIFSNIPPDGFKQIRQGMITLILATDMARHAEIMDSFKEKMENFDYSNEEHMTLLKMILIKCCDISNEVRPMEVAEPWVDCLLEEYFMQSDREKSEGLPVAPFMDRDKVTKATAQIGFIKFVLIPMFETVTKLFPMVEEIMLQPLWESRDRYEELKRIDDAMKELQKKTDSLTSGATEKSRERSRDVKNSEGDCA

Structure (SMILES) | pIC50 (human PDE9A2) | Selectivity (IC50 for PDE1C inhibition / IC50 for PDE9A2 inhibition) (PDE1C) | inhibition of human PDE9A (human PDE9A) | inhibition of murine PDE9A (Murine PDE9A)
O=c1[nH]c([C@@H]2CC[C@H]2c2cn3ccccc3n2)nc2c1cnn2C1CCC(F)(F)CC1 (racemic) [Example 4] | 8.22 | 123 | – | –
O=c1[nH]c([C@@H]2CC[C@H]2c2cn3ccc(Cl)cc3n2)nc2c1cnn2C1CCC(F)(F)CC1 (racemic) [Example 5] | 8.00 | 40 | – | –
CC(C)Cn1c(=O)n(C)c(=O)c2[nH]cnc21 [IBMX] | – | – | no inhibition | not inhibited
CC(=O)Nc1ccc(-c2c[nH]c(=O)cn2)cc1 [SKF94120] | – | – | no inhibition | –
OCCN(CCO)c1nc(N2CCCCC2)c2nc(N(CCO)CCO)nc(N3CCCCC3)c2n1 [dipyridamole] | – | – | no inhibition | –
COc1ccc(C2CNC(=O)C2)cc1OC1CCCC1 (stereo not shown) [rolipram] | – | – | no inhibition | –
CCOC(=O)C1=C[C@]2(CC)CCCN3CCc4c(n1c1ccccc41)[C@@H]32 [vinpocetine] | – | – | no inhibition | –
